Experimental findings from paper PMC12348844, “Anti-Trypanosoma cruzi Potential of New Pyrazole-Imidazoline Derivatives” (Molecules, 2025) are described below.

Read-outs that look alike come from different tables or passages of the source. Bounds are passed on as bounds.

One may read the IC90 as the point of the concentration-response curve where the effect stands at 90%. What is called CC50 is the concentration that lowers cell viability or growth by half. Low readings indicate harm at low concentration, high ones better tolerance by the cells.

The test system of series [1] is T. cruzi cysteine protease. Put plainly: Cysteine protease activity in trypomastigote protein extract (Z-Phe-Arg-AMC). Type of series: biochemical, Trypanosoma cruzi. The settings on record: 90 min, 37 °C, 33.3, 100 and 300 µM tested. The protocol: Total proteins from T. cruzi Dm28c-Luc were extracted using a lysis buffer [100 mM Tris-HCl pH 8.0, 150 mM NaCl, 10% glycerol, 0.5% Triton X-100]. The protein concentration was quantified using the Bradford assay, with bovine serum albumin (BSA) used to establish the standard curve. For the assessment of cysteine protease activity, 5 μg of the protein extract was incubated in an acetate buffer [10 mM sodium acetate, pH 5.0], supplemented with 1 mM dithiothreitol (DTT) in a final volume of 100 μL. The reaction used a fluorogenic peptide substrate, N-benzoyloxycarbonyl-L-phenylalanyl-L-arginine 7-amino-4-methylcoumarin (Z-FR-AMC), at a concentration of 60 μM. Incubation was conducted at 37 °C for 90 min, with relative fluorescence changes measured using a SpectraMax M2e spectrophotometer (Molecular Devices, Sunnyvale, CA, USA). Inhibition assays were performed using three concentrations (33.3, 100, and 300 µM) of the promising candidate and trans-epoxysuccinyl-L-leucylamido(4-guanidino)butane (E-64), each analyzed separately. A control was included using a low DMSO concentration (≤1%). Enzymatic activity was expressed in µmol/min/mg of protein, with residual activity presented as a percentage.

Series [2] relates to T. cruzi Dm28c-Luc intracellular amastigotes. Kind of series: Anti-T. cruzi in vitro assay, intracellular amastigotes in Vero cells (luminescence). Type of series: cell-based, Trypanosoma cruzi. Conditions: for SI (selectivity index = CC50/IC50): CC50 Vero cells / IC50 intracellular amastigotes. The protocol: (§1) The genetically modified Trypanosoma cruzi, clone Dm28c (TcI), expressing luciferase (Dm28c-Luc), was kindly provided by Dr. Cristina Henriques from Oswaldo Cruz Institute—Fiocruz. The parasites were maintained using Vero cell cultures in RPMI 1640 medium enriched with 10% FBS. At 4 days post-infection (dpi), the trypomastigotes released into the culture supernatant were harvested, subjected to centrifugation at 800× g for 20 min at 4 °C, and quantified with a Neubauer chamber. The isolated trypomastigotes were subsequently used for phenotypic screening, drug efficacy assessments employing a 3D cardiac model, washout experiments to evaluate reversibility, drug combination studies, and enzymatic assays.
To evaluate the effect of pyrazole-imidazoline derivatives against intracellular amastigotes, Vero cells (1.5 × 10^4 cells/well) were cultured in a white 96-well plate with a clear bottom and subsequently infected with T. cruzi Dm28c-Luc at a 10:1 parasite-to-host cell ratio for 24 h. […] Parasite viability was measured by luminescence following the addition of luciferin (300 µg/mL). Background measurements (non-infected cultures incubated with luciferin, as well as luciferin-only controls) were performed to ensure the signal specifically originates from viable parasites. The IC50 and IC90 values, denoting the concentrations that achieve 50% and 90% reductions in viable parasites, respectively, were calculated using GraphPad Prism 8.2.1 software. Additionally, the selectivity index (SI) was calculated as the cytotoxic concentration (CC50) ratio in mammalian cells to the IC50 against T. cruzi, providing insight into the therapeutic window. Potency against intracellular amastigotes was evaluated using the formula 6—Log10 (IC50).

Series [3] concerns T. cruzi Dm28c-Luc trypomastigotes. Kind of series: Anti-T. cruzi in vitro assay, trypomastigotes (luminescence). Type of series: cell-based. The settings on record: Trypanosoma cruzi, 24 h, mean ± SD. The protocol: as §1
Drug susceptibility assays were performed on T. cruzi Dm28c-Luc, a genetically engineered parasite expressing luciferase. The drug screening used both trypomastigotes and intracellular amastigotes. Trypomastigotes (1 × 10^6 parasites/well) were added to white 96-well plates with clear bottoms. […] The luminescence was measured using a Glomax Multi-Detection plate reader (Promega Corporation, Madison, WI, USA).

The nature of series [4]: Cytotoxicity assay, Vero cells (CellTiter-Glo). Type of series: cell-based. The settings on record: African green monkey, mean ± SD. As for the experimental part:
Vero cells, obtained from the Rio de Janeiro Cell Bank (BCRT code 0245) and maintained through weekly subculturing with a dissociation solution containing 0.25% trypsin-EDTA, initiated once the monolayer reached an 80–100% confluence. Following harvesting, the cells were washed and resuspended in RPMI 1640 medium enriched with 10% fetal bovine serum (FBS). Cultures were maintained at 37 °C in a 5% CO2-humidified incubator. These cultures were used for drug screening assays and for producing culture-derived trypomastigotes of T. cruzi.
Cytotoxicity assays were performed using Vero cells, which were seeded at a density of 1.5 × 10^4 cells per well in white 96-well plates with clear bottoms. Following a 24 h adhesion period, the cultures were incubated at 37 °C in a 5% CO2 atmosphere. […] After 72 h of incubation, cell viability was assessed by adding CellTiter-Glo reagent (Promega Corporation, Madison, WI, USA), which induces cell lysis and reacts with the released ATP to produce luminescence. The resulting luminescence was measured using a Glomax Multi-Detection plate reader (Promega Corporation, Madison, WI, USA). The half-maximal inhibitory concentration (CC50) for cell viability was then calculated using GraphPad Prism software version 8.2.1.
A general note: In ATP-based viability assays light output follows the ATP content of the culture.

Setting [5] is: Trypanosoma cruzi, Vero, 72 h, Dm28c-Luc in Vero cells, mean ± SD, read-out: Intracellular Amastigotes IC50.
Setting [6] is: Trypanosoma cruzi, Vero, intracellular amastigotes, 6 − Log10(IC50), read-out: pIC50 (potency) (converted).
[7] abbreviates: Trypanosoma cruzi, 72 h, Dm28c-Luc in Vero cells, mean ± SD.

For the compound `CC(C)C[C@H](NC(=O)[C@H]1O[C@@H]1C(=O)O)C(=O)NCCCCN=C(N)N` (relative stereo) [E-64, trans-epoxysuccinyl-L-leucylamido(4-guanidino)butane, reference compound], in series [1], the “inhibition of cysteine protease activity” value is reported as 92.81%.
Take `Nc1c(C2=NCCN2)cnn1-c1ccc(Cl)cc1Cl` [1a, 5-amino-1-(2,4-dichlorophenyl)-4-(4,5-dihydro-1H-imidazol-2-yl)-1H-pyrazole]: the “SI (selectivity index = CC50/IC50)” value in series [2] is listed as over 12.2. In addition, the IC50 in series [2] (setting [5]) is 40.8 ± 3 µM; in series [2] (setting [6]) it was 75.9 µM; in series [3] it was over 100 µM. Further, the IC90 in series [2] (setting [7]) and in series [3] was over 100 µM in each case. Besides, the half-maximal cytotoxic concentration (CC50) at 72 h in series [4] was over 500 µM.
In the case of `Nc1c(C2=NCCN2)cnn1-c1cccc(F)c1` [1b, 5-amino-1-(3-fluorophenyl)-4-(4,5-dihydro-1H-imidazol-2-yl)-1H-pyrazole], the IC50 in series [2] (setting [5]), in series [2] (setting [6]) and in series [3] was over 100 µM in each case. The IC90 in series [2] (setting [7]) and in series [3] was over 100 µM each time. Also, in series [4], the cytotoxic concentration (CC50) at 72 h was over 500 µM.
`Cc1ccc(-n2ncc(C3=NCCN3)c2N)cc1` [1c, 5-amino-1-(4-methylphenyl)-4-(4,5-dihydro-1H-imidazol-2-yl)-1H-pyrazole]: the IC50 in series [2] (setting [5]), in series [2] (setting [6]) and in series [3] was over 100 µM in each case. Besides, the IC90 in series [2] (setting [7]) and in series [3] was over 100 µM each time. This compound also registered a CC50 at 72 h in series [4] of over 500 µM.
For `Cc1ccc(-n2cc(C3=NCCN3)cn2)cc1` [1d, 1-(4-methylphenyl)-4-(4,5-dihydro-1H-imidazol-2-yl)-1H-pyrazole], in series [2], the “SI (selectivity index = CC50/IC50)” value is given as over 14.7. In addition, the IC50 in series [2] (setting [5]) is 33.9 ± 0.8 µM; in series [2] (setting [6]), 39.8 µM; in series [3], over 100 µM. The IC90 in series [2] (setting [7]) and in series [3] was over 100 µM throughout. In series [4], this compound returned a CC50 at 72 h of over 500 µM.
Take `Cc1ccc(-n2ncc(C3=NCCN3)c2N)cc1Cl` [1e, 5-amino-1-(3-chloro-4-methylphenyl)-4-(4,5-dihydro-1H-imidazol-2-yl)-1H-pyrazole]: the “SI (selectivity index = CC50/IC50)” value in series [2] is reported as over 7.2. Besides, the IC50 in series [2] (setting [5]) is 68.9 ± 8.1 µM; in series [2] (setting [6]) it was 79.4 µM; in series [3] it was 76.5 ± 10.3 µM. Also, the results for the IC90 in series [2] (setting [7]) and in series [3] were 96.6 ± 0.2 µM and over 100 µM, respectively. The compound further gave a cytotoxic concentration (CC50) at 72 h in series [4] of over 500 µM.
Regarding `Cc1cc(Cl)ccc1-n1ncc(C2=NCCN2)c1N` [1f, 5-amino-1-(4-chloro-2-methylphenyl)-4-(4,5-dihydro-1H-imidazol-2-yl)-1H-pyrazole], the “SI (selectivity index = CC50/IC50)” value in series [2] was over 6.5. The IC50 in series [2] (setting [5]) was 76.1 ± 1.2 µM; in series [2] (setting [6]), 79.4 µM; in series [3], over 100 µM. The concentration for an effect of 90% (IC90) in series [2] (setting [7]) and in series [3] was over 100 µM in each case. In series [4], the cytotoxic concentration (CC50) at 72 h was over 500 µM.
Regarding `Cc1cccc(-n2ncc(C3=NCCN3)c2N)c1` [1g, 5-amino-1-(3-methylphenyl)-4-(4,5-dihydro-1H-imidazol-2-yl)-1H-pyrazole], the “SI (selectivity index = CC50/IC50)” value in series [2] was over 6.3. The IC50 in series [2] (setting [5]) is 78.9 ± 2.2 µM; in series [2] (setting [6]), 79.4 µM; in series [3], over 100 µM. Also, the IC90 in series [2] (setting [7]) and in series [3] was over 100 µM throughout. Moreover, in series [4], the 50% cytotoxic concentration (CC50) at 72 h is over 500 µM.
As for `Cc1cccc(-n2cc(C3=NCCN3)cn2)c1` [1h, 1-(3-methylphenyl)-4-(4,5-dihydro-1H-imidazol-2-yl)-1H-pyrazole], the IC50 is 26.2 ± 3.4 µM in series [2] (72 h, Dm28c-Luc in Vero cells, mean ± SD, read-out: Intracellular Amastigotes IC50); 26.1 ± 3.4 µM in series [2] (setting [5]); 25.1 µM in series [2] (setting [6]); over 100 µM in series [3]. Further, the “SI (selectivity index = CC50/IC50)” value in series [2] is over 19.1. Also, the 90% effect concentration (IC90) was 89.7 ± 7.4 µM in series [2] (setting [7]) and over 100 µM in series [3]. For the same compound, the CC50 at 72 h in series [4] was over 500 µM.
As for `Nc1c(C2=NCCN2)cnn1-c1cccc(C(F)(F)F)c1` [1i, 5-amino-1-(3-trifluoromethylphenyl)-4-(4,5-dihydro-1H-imidazol-2-yl)-1H-pyrazole], the “SI (selectivity index = CC50/IC50)” value in series [2] is reported as over 9.6. Further, the IC50 is 51.9 ± 3.6 µM in series [2] (setting [5]), 63.1 µM in series [2] (setting [6]) and over 100 µM in series [3]. Moreover, the IC90 in series [2] (setting [7]) and in series [3] was over 100 µM each time. In series [4], this compound had a CC50 at 72 h of over 500 µM.
In the case of `Nc1c(C2=NCCN2)cnn1-c1ccc(C(F)(F)F)cc1` [1j, 5-amino-1-(4-trifluoromethylphenyl)-4-(4,5-dihydro-1H-imidazol-2-yl)-1H-pyrazole], the “SI (selectivity index = CC50/IC50)” value in series [2] is over 5.6. Also, the IC50 in series [2] (setting [5]) is 88.1 ± 0.2 µM; in series [2] (setting [6]), 100 µM; in series [3], over 100 µM. The concentration for an effect of 90% (IC90) in series [2] (setting [7]) and in series [3] was over 100 µM throughout. This compound had a CC50 at 72 h in series [4] of over 500 µM.
Consider `Nc1c(C2=NCCN2)cnn1-c1cc(C(F)(F)F)cc(C(F)(F)F)c1` [1l, 5-amino-1-((3,5-ditrifluoromethyl)phenyl)-4-(4,5-dihydro-1H-imidazol-2-yl)-1H-pyrazole], for which the “SI (selectivity index = CC50/IC50)” value in series [2] is recorded as 16.7. Besides, the IC50 in series [2] (setting [5]) is 27.7 ± 2 µM; in series [2] (setting [6]), 31.6 µM; in series [3] it was over 100 µM. Also, the figures for the IC90 in series [2] (setting [7]) and in series [3] were 80.1 ± 11.4 µM and over 100 µM, respectively. Also, the CC50 at 72 h in series [4] turned out to be 464 ± 15.2 µM.
In the case of `FC(F)(F)c1cc(-n2cc(C3=NCCN3)cn2)cc(C(F)(F)F)c1` [1m, 1-((3,5-ditrifluoromethyl)phenyl)-4-(4,5-dihydro-1H-imidazol-2-yl)-1H-pyrazole], the “SI (selectivity index = CC50/IC50)” value in series [2] was 3.5. Besides, the IC50 in series [2] (setting [5]) is 32.4 ± 5.9 µM; in series [2] (setting [6]), 31.6 µM; in series [3], over 100 µM. Also, the figures for the concentration for an effect of 90% (IC90) in series [2] (setting [7]) and in series [3] were 80.7 ± 0.4 µM and over 100 µM, respectively. The same compound yielded a CC50 at 72 h in series [4] of 114 ± 11.9 µM.
